# From patent US20100041632A1, “USES OF THE CARBOXY-AMIDO-TRIAZOLE COMPOUNDS AND SALTS THEREOF” (priority 2006, published 2010)
# Tests used:
# IL-1β = IL-1β levels in paw tissue and serum of adjuvant arthritis rat (ELISA); type: in vivo; details: administered in combination with CAI
# Method: (§1) The adjuvant arthritis rat was prepared as described in example 8. Treatment was performed as described in example 8. Blood was collected from eve socket on day 29 and left in room temperature to allow coagulating. Then serum was separated by centrifugation at 3000 rpm for 10 min and kept in −20° C. After animals were sacrificed, the subcutaneous tissue of the right hind paw and that surrounding the tarsotibial joints was removed, broke into pieces, and placed in 5 ml normal saline (0.9%). The tissues were homogenized in a high speed homogenizer. Then the homogenate was centrifuged at 4° C. and 10,000 rpm for 15 min. The supernatants were collected and stored at −20° C. until further analysis.
# (§2) IL-1β and TNF-α levels in paw tissue and serum were measured using specific rat ELISA kits according to the manufacturer's instructions.
# TNF-α = TNF-α levels in paw tissue and serum of adjuvant arthritis rat (ELISA); type: in vivo; details: administered in combination with CAI
# Method: as §1, with “Blood” for “The adjuvant arthritis rat was prepared as described in example 8. Treatment was performed as described in example 8. Blood”
# as §2
# rats = experiment: Granulomatous tissue formation (implanted tampon); type: in vivo; details: 7 days; CAI 20 mg/kg/day p.o.; dexamethasone 0.067 mg/kg/day i.p.
# Method: 44 rats (160 g) were randomly divided into 4 groups (11 rats/group). Animals were slightly anaesthetized by ether. After sterilization, the groin was cut bilaterally. A sterile tampon (50 mg) was implanted (sc). On the same day, the following treatments were administered: N.S. (i.p., control group), 0.067 mg/kg/day dexamethasone (i.p., positive control), 20 mg/kg/day CAI (p.o., dissolved in PEG 400, test group) and 0.067 mg/kg/day dexamethasone+20 mg/kg/day CAI (p.o., dissolved in PEG 400, combination group). After 7 days administration, the animals were sacrificed. The cotton was removed. The granulomatous tissue was dried at 60° C. oven for 12 hr and weighed. Increment in the dry weight of the tissue was taken as measure of granuloma formation. The Increment was adjusted for respective body weight, and the mean value for each group was calculated.
# Kunming mice [1] = experiment: Croton oil-induced ear edema mouse model; type: in vivo; details: ear weight difference 4 hours after 2% croton oil; CAI/analogs 2 mg/ml ig, dexamethasone 0.2 mg/ml ip, 0.1 ml/10 g/day, 3 days
# Method: Male Kunming mice, weighted 18-22 g, were randomly divided to the following experiment groups, 20 mice/group:
# Negative control: normal saline was injected (ig), 0.1 ml/10 g/day for 3 consecutive days.
# Vehicle control: PEG400 was injected (ig), […] for 3 consecutive days.
# Positive control: Dexamethasone (0.2 mg/ml) was injected (ip), 0.1 ml/10 g/day for 3 consecutive days.
# Test group: CAI or its analogs (2 mg/ml, analogs are as described in example 5) was administered (ig), 0.1 ml/10 g/day for 3 consecutive days.
# 8 hours after the last administration, 20 μl of croton oil solution (2%) was applied to the right ear of each mouse. The left ear remained untreated as control. The animals were sacrificed 4 hours later, and a piece of tissue was punched from the same position of the treated and untreated ear. The tissues were weighed on a 0.1 mg balance. The difference in weight between the two pieces of tissue of each mouse was taken as a measure of swelling intensity.
# Wistar rats = experiment: Adjuvant induced arthritis (AA) of rat, paw oedema; type: in vivo
# Method: Negative control (AA+NS): […] positive control (AA+Dex): dexamethasone, i.p., 0.067 mg/kg/day. Vehicle control (AA+PEG400): […] CAI (AA+CAI): 20 mg/ml CAI, ig, 0.1 ml/100 g/day (20 mg/kg/day). Combination (AA+CAI+Dex): dexamethasone, 0.067 mg/kg/day (i.p.) plus CAI 20 mg/kg/day (p.o.). Normal volumes of left and right hind paw were measured before adjuvant injection. […]
# Kunming mice [2] = experiment: Effect of CAI on drug addiction caused by morphine (naloxone-induced jumping)
# Method: 160 Kunming mice (18-22 g, half male and half female) were divided into 4 groups randomly, with 40 mice per group:
# Control group with solvent, PEG400/N.S. (10 μl/g/day PEG400, (ig), 4 days);
# Group treated with CAI, CAI/N.S. (CAI is resolved in PEG400 to reach a final concentration of […], 20 mg CAI/kg/day was administered (ig) for 4 days, N.S. was taken according to morphine administration in table 1);
# Group treated with morphine, PEG400/morphine (10 μl/g/day PEG400 was administered (ig) for 4 days, morphine was administered according to the table below);
# 4 hours after the morphine administration on the fifth day, animals of each group was injected (ip) with 1 mg/kg naloxone and then put into a tank (5000 ml) immediately. The jump frequency in 30 minutes was recorded. Two-factor analysis of variance by SPSS was performed to analyse the experiment results.
# Kunming mice [3] = experiment: Formalin test (analgesic effect); type: in vivo
# Method: 320 Kunming mice (18-22 g, half male and half female) were divided into 4 groups randomly with 80 animals in each group.
# Control group with dissolvent (PEG400/N.S.): 10 μl PEG400 was administered (ig) twice with the interval of 24 hours. The pain intensity test was carried out 8 hours after the second administration. 200 μl N.S. is injected (sc) 5 minutes before the test.
# (§3) Morphine/PEG400 group: 10 μl PEG400 was administered (ig) twice with the interval of 24 hours. The pain intensity test was carried out 8 hours after the second administration. Morphine (2 mg/kg body weight) was injected (sc) 5 minutes before the test.
# (§4) CAI/N.S. group: CAI (20 mg/kg body weight, 2 mg/ml) was administered (ig) twice with the interval of 24 hours. The pain intensity test was carried out 8 hours after the second administration. 200 μl N.S. was injected (sc) 5 minutes before the test.
# (§5) The pain intensity test was carried out 8 hours after the second administration. Morphine (2 mg/kg body weight) was injected (sc) 5 minutes before the test.
# 5 minutes after the morphine or N.S. injection, 20 μl 2% formalin was injected (sc) into the subplantar space of the hind paw. The animals were placed immediately in a glass cylinder hanging on a holder, with a mirror placed below with 30° slope to observe the paw responses. The pain responses of the animals with injected paws were recorded; a pain ranking was recorded as follows: 3=the injected paw is licked, bitten, or shaken; 2=the injected paw is elevated and is not in contact with any other surface; 1=the injected paw has little or no weight on it; 0=the injected paw is not favored. The duration of each of the 4 behavioral categories was recorded. The observation lasted for 15 minutes. A pain intensity score was calculated by multiplying the amount of time spent in each category by its assigned category score and adding these products together.
# Kunming mice [4] = experiment: Radiant heat test (tail-flick); type: in vivo
# Method: The radiant heat dolorimeter (Collumbus Instruments) is used in this model with the tail-flick mode and the exposure rate of 20. The latency periods (TFL) starting from the beginning of exposure to the tail-flick responses were recorded as the pain threshold. The exposure time lasted for 16 seconds.
# Kunming mice (18-22 g, male) are tested for the basic pain threshold before the test with drug administration, and those with pain threshold longer than 16 seconds are excluded. The selected mice are divided into 4 groups with 15 animals per group.
# (§6) Control group with dissolvent: 10 μl PEG400 was administered (ig) twice with the interval of 24 hours. The pain intensity test was carried out 8 hours after the second administration. 200 μl N.S. was injected (sc) 5 minutes before the test.
# as §3, §4
# The pain intensity test was carried out 8 hours after the second administration, morphine (2 mg/kg body weight) was injected (sc) 5 minutes before the test.
# The pain threshold of each mouse was tested before and after morphine or N.S. injection. The values after drug administration minus those before drug administration were considered to be the changing index of pain threshold.
# Kunming mice [5] = experiment: Hot plate test (analgesic effect); type: in vivo
# Method: Kunming mice (18-22 g, female) were randomly divided into 4 groups with 20 animals per group.
# as §6, §3, §4, §5
# The mice were placed onto a hot plate (53±0.5° C.) and the latency periods (second) of hopping responses were recorded as the pain threshold index.
compound,measurement,setting,value
CC(=O)O.NC(=O)c1nnn(Cc2cc(Cl)c(C(=O)c3ccc(Cl)cc3)c(Cl)c2)c1N [CAI acetate],Inhibitory effect on serum levels of IL-1β (in words),IL-1β,obvious and even more pronounced
same,Inhibitory effect on serum levels of TNF-α (in words),TNF-α,obvious and even more pronounced
Cl.NC(=O)c1nnn(Cc2cc(Cl)c(C(=O)c3ccc(Cl)cc3)c(Cl)c2)c1N [CAI hydrochlorate],Inhibitory effect on serum levels of IL-1β (in words),IL-1β,obvious and even more pronounced
same,Inhibitory effect on serum levels of TNF-α (in words),TNF-α,obvious and even more pronounced
"C[C@@H]1C[C@H]2[C@@H]3CCC4=CC(=O)C=C[C@]4(C)[C@@]3(F)[C@@H](O)C[C@]2(C)[C@@]1(O)C(=O)CO [dexamethasone, reference compound]",granulomatous tissue:bady weight ratio (mean ± std),rats,0.064 ± 0.00495
same,Swelling intensity (mg) mean ± std,Kunming mice [1],1.5 ± 0.4 mg
same,"Primary paw oedema (%), mean ± std","Wistar rats; 1 d, CAI 20 mg/kg/day ig, Dex 0.067 mg/kg/day i.p.",111.3 ± 13.6 %
same,"Primary paw oedema (%), mean ± std",Wistar rats; 2 d,121.9 ± 16.0 %
same,"Primary paw oedema (%), mean ± std",Wistar rats; 5 d,107.4 ± 12.5 %
same,"Primary paw oedema (%), mean ± std",Wistar rats; 8 d,103.6 ± 14.0 %
same,"Primary paw oedema (%), mean ± std",Wistar rats; 11 d,100.3 ± 21.0 %
same,"Primary paw oedema (%), mean ± std",Wistar rats; 14 d,100.0 ± 11.3 %
same,"Secondary paw oedema (%), mean ± std","Wistar rats; 14 d, right hind paw",1.1 ± 1.0 %
same,"Primary paw oedema (%), mean ± std",Wistar rats; 17 d,95.3 ± 15.7 %
same,"Secondary paw oedema (%), mean ± std",Wistar rats; 17 d,1.9 ± 1.4 %
same,"Primary paw oedema (%), mean ± std",Wistar rats; 20 d,83.9 ± 24.0 %
same,"Secondary paw oedema (%), mean ± std",Wistar rats; 20 d,2.8 ± 0.9 %
same,"Primary paw oedema (%), mean ± std",Wistar rats; 23 d,80.4 ± 17.8 %
same,"Secondary paw oedema (%), mean ± std",Wistar rats; 23 d,4.6 ± 1.4 %
same,"Primary paw oedema (%), mean ± std",Wistar rats; 26 d,78.6 ± 23.1 %
same,"Secondary paw oedema (%), mean ± std",Wistar rats; 26 d,3.6 ± 1.7 %
same,"Primary paw oedema (%), mean ± std",Wistar rats; 29 d,73.9 ± 18.0 %
same,"Secondary paw oedema (%), mean ± std",Wistar rats; 29 d,2.5 ± 1.7 %
"CN1CC[C@]23c4c5ccc(O)c4O[C@H]2[C@@H](O)C=C[C@H]3[C@H]1C5 [morphine, reference compound]",Mean number of jump,"Kunming mice [2]; jump frequency in 30 minutes after naloxone 1 mg/kg ip, CAI 20 mg/kg/day ig 4 days, morphine per Table 1, mean ± std",41 ± 58
same,Addiction / withdrawal syndrome (in words),"Kunming mice [2]; naloxone-induced jumping, two-factor ANOVA vs PEG400/N.S.",causes obvious withdrawal syndrome
same,Pain intensity score (mean ± std),"Kunming mice [3]; 2% formalin sc hind paw, 15 minutes observation, CAI 20 mg/kg ig twice, morphine 2 mg/kg sc",756 ± 441
same,Analgesic effect in formalin test (in words),Kunming mice [3]; pain scores compared with the control group,decrease significantly
same,Analgesic effect in radiant heat test (in words),Kunming mice [4]; compared with the control group,extended the pain threshold time very significantly
same,"Pain threshold change (seconds, mean ± std)","Kunming mice [4]; tail-flick latency after minus before drug, CAI 20 mg/kg ig twice, morphine 2 mg/kg sc",6.95 ± 5.69 s
same,"Pain threshold (sec, mean ± std)","Kunming mice [5]; hot plate 53±0.5° C., latency of hopping response, CAI 20 mg/kg ig twice, morphine 2 mg/kg sc",31.9 ± 12.1 s
same,Analgesic effect in hot plate test (in words),Kunming mice [5]; two-factor ANOVA,extends the pain response time very significantly
